According to PMC5818615, “Use of HuH6 and other human-derived hepatoma lines for the detection of genotoxins: a new hope for laboratory animals?” (Archives of Toxicology, 2017):
Like-named read-outs stand apart in the source and are kept apart here.

Key:
HCC 1.2 cells = conditions: 48 h
Procedure: (§1) The SCGE experiments were conducted as described in an international guideline (Tice et al. [2000]). Reagents for the assays (lysis solution and alkaline electrophoresis buffer) and agarose-coated slides were prepared according to Collins and Dusinska ([2009]).
(§2) Briefly, cells were sub-cultured in 1.0 ml medium in 24–well tissue-culture plates (Sarstedt Inc., Newton, NC, USA). After 24 h, the media were changed and the cells exposed to different concentrations of the test compounds or to the solvent controls (PBS or DMSO). […] To terminate the treatment, the cells were washed twice with PBS (1.0 ml), trypsinized (100 µl T/E per well, 4 min) and then resuspended in 400 µl culture medium containing FBS. Subsequently, the suspensions were transferred to Eppendorf tubes and centrifuged (200g, 5 min). Cell pellets were resuspended in cold PBS.
(§3) In all experiments, acute toxic effects were determined with a CASY® Cell Counter and Analyzer System (Schärfe-System GmbH, Reutlingen, Germany) (Lindl et al. [2005]). SCGE assays were only performed when the viability of the cultures was ≥ 70% (Koppen et al. [2017]). Per experimental point, two cultures were set up in parallel and from each one slide with two separate gels (30,000 cells/gel) was prepared. After unwinding (40 min, pH > 13) and electrophoresis (30 min, 0.75 V/cm, ~ 300 mA, 4 °C, pH > 13), 50 cells were evaluated per gel (200 cells per experimental point). As an endpoint, we determined the tail intensities (“% DNA in tail”) with a computer-aided system Comet Assay IV (Perceptive Instruments, Bury St Edmunds, UK), which is at present the most widely used parameter (Collins et al. [2008]; Moller [2006]). For each gel, the median of the tail intensity was calculated.

Hep3B cells = conditions: Hep3B, 48 h
Procedure: as §1, §2, §3

HepG2 cells = conditions: 48 h
Procedure: as §1, §2, §3

HepaRG cells = conditions: for Result of SCGE experiments (in words): HepaRG cells; for % DNA in tail: HepaRG, 48 h
Procedure: as §1, §2, §3

HuH6 cells = conditions: 48 h
Procedure: as §1, §2, §3

HuH7 cells = conditions: 48 h
Procedure: as §1, §2, §3

JHH6 cells = conditions: 48 h, control 0.59 ± 0.21
Procedure: as §1, §2, §3

PLC/PRF cells = conditions: PLC/PRF, 48 h
Procedure: as §1, §2, §3

SK-Hep1 cells = conditions: 48 h
Procedure: as §1, §2, §3

SNU-398 cells = conditions: 48 h
Procedure: as §1, §2, §3

SNU-449 cells = conditions: 48 h
Procedure: as §1, §2, §3

WRL68 cells = conditions: 48 h
Procedure: as §1, §2, §3

[1] = system: human derived liver cell lines; conditions: for Number of the twelve lines sensitive towards the compound: SCGE experiments without exogenous enzyme activation mix
Procedure: as §1, §2, §3

[2] = ref IARC [1993]; cited from earlier work
[3] = system: primary human hepatocytes; conditions: ref Wilkening et al. [2003]; cited from earlier work

With `Cn1c(N)nc2c3cccnc3ccc21` [IQ, 2-amino-3-methyl-3H-imidazo[4,5-f]quinolone] the “% DNA in tail” value (HCC 1.2 cells; HCC 1.2, IQ 50.0 µM, control 2.93 ± 1.40) was 1.86 ± 0.44%, the “% DNA in tail” value (HCC 1.2 cells; HCC 1.2, IQ 100.0 µM, control 2.93 ± 1.40, starred P ≤ 0.05) was 7.29 ± 1.87% and the “% DNA in tail” value (Hep3B cells; IQ 50.0 µM, control 0.92 ± 0.58) was 0.88 ± 0.71%. The “% DNA in tail” value (Hep3B cells; IQ 100.0 µM, control 0.92 ± 0.58) was 1.75 ± 1.45%, the “% DNA in tail” value (HepG2 cells; HepG2, IQ 50.0 µM, control 2.16 ± 0.54) was 1.32 ± 0.91% and the “% DNA in tail” value (HepG2 cells; HepG2, IQ 100.0 µM, control 2.16 ± 0.54, starred P ≤ 0.05) was 5.38 ± 2.02%. For the same compound, the “Result of SCGE experiments (in words)” value (HepaRG cells) was “negative results”, the “% DNA in tail” value (HepaRG cells; IQ 50.0 µM, control 2.34 ± 2.92) was 2.39 ± 4.10% and the “% DNA in tail” value (HepaRG cells; IQ 100.0 µM, control 2.34 ± 2.92) was 2.38 ± 1.97%. For the same compound, the “% DNA in tail” value (HuH6 cells; HuH6, IQ 50.0 µM, control 4.01 ± 1.68) was 5.91 ± 3.05%, the “% DNA in tail” value (HuH6 cells; HuH6, IQ 100.0 µM, control 4.01 ± 1.68, starred P ≤ 0.05) was 10.82 ± 5.71% and the “% DNA in tail” value (HuH7 cells; HuH7, IQ 50.0 µM, control 1.29 ± 1.30) was 2.16 ± 0.91%. The “% DNA in tail” value (HuH7 cells; HuH7, IQ 100.0 µM, control 1.29 ± 1.30) was 1.11 ± 0.60%, the “% DNA in tail” value (JHH6 cells; JHH6, IQ 50.0 µM) was 1.29 ± 1.55% and the “% DNA in tail” value (JHH6 cells; JHH6, IQ 100.0 µM) was 0.93 ± 0.67%. The “% DNA in tail” value (PLC/PRF cells; IQ 50.0 µM, control 2.47 ± 2.08) was 5.17 ± 4.50%, the “% DNA in tail” value (PLC/PRF cells; IQ 100.0 µM, control 2.47 ± 2.08) was 2.84 ± 2.65% and the “% DNA in tail” value (SK-Hep1 cells; SK-Hep1, IQ 50.0 µM, control 0.59 ± 0.24) was 0.62 ± 0.47%. The “% DNA in tail” value (SK-Hep1 cells; SK-Hep1, IQ 100.0 µM, control 0.59 ± 0.24) was 1.43 ± 0.95%, the “% DNA in tail” value (SNU-398 cells; SNU-398, IQ 50.0 µM, control 1.02 ± 0.88) was 1.42 ± 0.72% and the “% DNA in tail” value (SNU-398 cells; SNU-398, IQ 100.0 µM, control 1.02 ± 0.88) was 1.20 ± 0.81%. For the same compound, the “% DNA in tail” value (SNU-449 cells; SNU-449, IQ 50.0 µM, control 1.20 ± 1.18) was 3.67 ± 2.95%, the “% DNA in tail” value (SNU-449 cells; SNU-449, IQ 100.0 µM, control 1.20 ± 1.18) was 1.46 ± 1.21% and the “% DNA in tail” value (WRL68 cells; WRL68, IQ 50.0 µM, control 0.76 ± 0.77) was 1.15 ± 1.44%. The “% DNA in tail” value (WRL68 cells; WRL68, IQ 100.0 µM, control 0.76 ± 0.77) was 0.56 ± 0.67%, the “Number of the twelve lines sensitive towards the compound” value [1] was “three” and the “Doses required to cause significant effects in SCGE assays” value ([1]; different hepatic lines, in most cases) was no less than 100 mM. For the same compound, the IARC classification [2] was “Causes guanine adducts, clear evidence for carcinogenicity in experiments with rodents IARC: Group 2A”.
In the case of `Cn1c(N)nc2ncc(-c3ccccc3)cc21` [PhIP, 2-amino-1-methyl-6-phenylimidazo[4,5-b]pyridine], the “% DNA in tail” value (HCC 1.2 cells; HCC 1.2, PhIP 50.0 µM, control 6.61 ± 2.14, starred P ≤ 0.05) is reported as 17.5 ± 4.84%, the “% DNA in tail” value (HCC 1.2 cells; HCC 1.2, PhIP 100.0 µM, control 6.61 ± 2.14, starred P ≤ 0.05) is reported as 15.1 ± 2.32% and the “% DNA in tail” value (HCC 1.2 cells; HCC 1.2, PhIP 300.0 µM, control 6.61 ± 2.14, starred P ≤ 0.05) is reported as 14.8 ± 2.63%. For the same compound, the “% DNA in tail” value (Hep3B cells; PhIP 50.0 µM, control 1.56 ± 0.18) was 1.43 ± 0.24%, the “% DNA in tail” value (Hep3B cells; PhIP 100.0 µM, control 1.56 ± 0.18) was 0.82 ± 0.53% and the “% DNA in tail” value (HepG2 cells; HepG2, PhIP 50.0 µM, control 2.90 ± 1.03, starred P ≤ 0.05) was 6.92 ± 2.00%. The “% DNA in tail” value (HepG2 cells; HepG2, PhIP 100.0 µM, control 2.90 ± 1.03, starred P ≤ 0.05) was 6.78 ± 1.37%, the “Result of SCGE experiments (in words)” value (HepaRG cells) was “detected” and the “% DNA in tail” value (HepaRG cells; PhIP 50.0 µM, control 0.53 ± 0.66, starred P ≤ 0.05) was 4.82 ± 3.57%. For the same compound, the “% DNA in tail” value (HepaRG cells; PhIP 100.0 µM, control 0.53 ± 0.66) was 2.86 ± 1.73%, the “% DNA in tail” value (HuH6 cells; HuH6, PhIP 50.0 µM, control 1.81 ± 1.15, starred P ≤ 0.05) was 11.51 ± 3.64% and the “% DNA in tail” value (HuH6 cells; HuH6, PhIP 100.0 µM, control 1.81 ± 1.15, starred P ≤ 0.05) was 8.67 ± 2.67%. For the same compound, the “% DNA in tail” value (HuH6 cells; HuH6, PhIP 300.0 µM, control 1.81 ± 1.15, starred P ≤ 0.05) was 24.7 ± 2.15%, the “% DNA in tail” value (HuH7 cells; HuH7, PhIP 50.0 µM, control 5.12 ± 1.05) was 5.35 ± 2.84% and the “% DNA in tail” value (HuH7 cells; HuH7, PhIP 100.0 µM, control 5.12 ± 1.05) was 9.21 ± 2.26%. For the same compound, the “% DNA in tail” value (HuH7 cells; HuH7, PhIP 300.0 µM, control 5.12 ± 1.05) was 3.55 ± 2.08%, the “% DNA in tail” value (JHH6 cells; JHH6, PhIP 50.0 µM) was 0.93 ± 1.09% and the “% DNA in tail” value (JHH6 cells; JHH6, PhIP 100.0 µM) was 1.44 ± 0.53%. The “% DNA in tail” value (PLC/PRF cells; PhIP 50.0 µM, control 3.82 ± 1.22) was 2.51 ± 0.56%, the “% DNA in tail” value (PLC/PRF cells; PhIP 100.0 µM, control 3.82 ± 1.22) was 4.00 ± 3.72% and the “% DNA in tail” value (PLC/PRF cells; PhIP 300.0 µM, control 3.82 ± 1.22) was 2.43 ± 2.03%. For the same compound, the “% DNA in tail” value (SK-Hep1 cells; SK-Hep1, PhIP 50.0 µM, control 2.84 ± 2.06) was 5.18 ± 1.19%, the “% DNA in tail” value (SK-Hep1 cells; SK-Hep1, PhIP 100.0 µM, control 2.84 ± 2.06) was 5.83 ± 1.06% and the “% DNA in tail” value (SK-Hep1 cells; SK-Hep1, PhIP 300.0 µM, control 2.84 ± 2.06) was 5.77 ± 4.30%. The “% DNA in tail” value (SNU-398 cells; SNU-398, PhIP 50.0 µM, control 5.60 ± 3.26) was 2.92 ± 1.18%, the “% DNA in tail” value (SNU-398 cells; SNU-398, PhIP 100.0 µM, control 5.60 ± 3.26) was 7.04 ± 5.97% and the “% DNA in tail” value (SNU-398 cells; SNU-398, PhIP 300.0 µM, control 5.60 ± 3.26) was 10.3 ± 1.06%. For the same compound, the “% DNA in tail” value (SNU-449 cells; SNU-449, PhIP 50.0 µM, control 2.12 ± 0.59) was 2.02 ± 0.81%, the “% DNA in tail” value (SNU-449 cells; SNU-449, PhIP 100.0 µM, control 2.12 ± 0.59) was 3.06 ± 1.08% and the “% DNA in tail” value (SNU-449 cells; SNU-449, PhIP 300.0 µM, control 2.12 ± 0.59) was 1.17 ± 0.83%. For the same compound, the “% DNA in tail” value (WRL68 cells; WRL68, PhIP 50.0 µM, control 2.89 ± 1.16) was 5.17 ± 3.21%, the “% DNA in tail” value (WRL68 cells; WRL68, PhIP 100.0 µM, control 2.89 ± 1.16) was 3.77 ± 1.36% and the “% DNA in tail” value (WRL68 cells; WRL68, PhIP 300.0 µM, control 2.89 ± 1.16) was 3.39 ± 3.35%. The “Number of the twelve lines sensitive towards the compound” value [1] was “four”, the “Sensitivity of primary hepatocytes compared with HepG2” value [3] was “substantially stronger effects” and the IARC classification [2] was “Causes guanine adducts that induces tumors at multiple sites in animal models IARC: Group 2B”.
